# Test results: PubChem BioAssay (NCI)
# “And” between values parts separate entries of the source, which are not always exact repeats. Equal values may be shown once.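 Five compound concentrations were applied to cells in 96-well plates for 48 hours; endpoints were derived by simple linear interpolation of the resulting dose-response curve. GI50 = concentration required for 50% inhibition of growth. TGI marks complete inhibition of growth.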
# Tests used:
# Assay in all cases: DTP human tumour cell line panel, 48 h
# [1] = tested on: UO-31 renal
# [2] = tested on: SNB-19 CNS
# [3] = tested on: CAKI-1 renal
# [4] = tested on: IGROV1 ovarian
# [5] = tested on: SF-268 CNS
# [6] = tested on: SK-MEL-28 melanoma
# [7] = tested on: HL-60(TB) leukemia
# [8] = tested on: HCT-116 colon
# [9] = tested on: NCI-H460 lung
# [10] = tested on: UACC-62 melanoma
Structure (SMILES),GI50 [1],TGI [1],GI50 [2],TGI [2],GI50 [3],TGI [3],GI50 [4],TGI [4],GI50 [5],TGI [5],GI50 [6],TGI [6],GI50 [7] [nM],TGI [7],GI50 [8],TGI [8],GI50 [9],TGI [9],GI50 [10],TGI [10]
CC/C(=C(/c1ccc(Cl)cc1)c1ccc(OCCCN(C)C)cc1)c1ccc(OC)cc1,5.3 µM,11.8 µM,1880 nM,5.78 µM,5550 nM,12.5 µM,3.09 µM,10.8 µM,7.6 µM,16.3 µM,1330 nM,3.84 µM,1150,2.84 µM,860 nM,1.57 µM,1100 nM,2.46 µM,1140 nM,2.5 µM
COC(=O)C1=CCS(=O)(=O)C1,,> 100 µM,,> 100 µM,,> 100 µM,,> 100 µM,,> 100 µM,,> 100 µM,,> 100 µM,,> 100 µM,,> 100 µM,,> 100 µM
COc1cccc(-c2nn(C)c3sc(C(=O)NCCN4CCN(c5ccccc5F)CC4)cc23)c1,4.56 µM,47.8 µM,21000 nM,> 100 µM,9020 nM,91.5 µM,> 100 µM,> 100 µM,46.9 µM,> 100 µM,11100 nM,33.4 µM,33100,> 100 µM,9910 nM,> 100 µM,14800 nM,> 100 µM,10500 nM,84.5 µM
Nc1nc(N)c(N=Nc2ccc([As](=O)(O)O)c(O)c2)c(N)n1,,> 100 µM,,> 100 µM,,> 100 µM,,> 100 µM,,> 100 µM,,> 100 µM,,13.2 µM,,> 33.7 µM,,> 28.1 µM,,> 100 µM
O=C(O)c1cccc(F)c1C(=O)c1ccc2ccccc2c1,,> 100 µM,,> 100 µM,,> 100 µM,,> 100 µM,,> 100 µM,,> 100 µM,,> 100 µM,,> 100 µM,,> 100 µM,,> 100 µM
C=CCOc1ccc2c(c1)CC[C@@H]1[C@@H]2CC[C@]2(C)C(=O)/C(=N/O)C[C@@H]12,2.39 µM,39.6 µM,11400 nM,> 55.1 µM,1900 nM,> 100 µM,3.42 µM,14.2 µM,3.71 µM,> 41.9 µM,> 46500 nM,> 75.1 µM,440,6.25 µM,2040 nM,6.82 µM,4710 nM,22.1 µM,14600 nM,32.5 µM
NC1=C(O)/C(=N/NS(=O)(=O)c2ccccc2)C(c2cccc(Cl)c2)O1 (stereo not given),,33.5 µM,,> 100 µM,,> 58.4 µM,,> 100 µM,,> 100 µM,,46.2 µM,,12.5 µM,,53.6 µM,,> 100 µM,,66.7 µM
COc1ccc(/C=N/C2=C(C#N)C(c3ccccc3)c3ccc4ccccc4c3O2)cc1 (stereo not given),0.368 µM,> 100 µM,540 nM,> 100 µM,224 nM,> 61.8 µM,0.403 µM,> 100 µM,1.65 µM,> 100 µM,1370 nM,> 100 µM,321,1.44 µM,402 nM,> 37.8 µM,363 nM,> 100 µM,491 nM,> 100 µM
CC(=O)NC1C(OCc2ccccc2)OC(COC(=O)CCCCCCCCCCNC(=O)CCNc2ccc([N+](=O)[O-])c3[nH]c4ccc(O)cc4c(=O)c23)C(O)C1OC(C)C(=O)N[C@H](C(=O)N[C@H](CCC(=O)O)C(N)=O)C(C)C (stereo not given in full),,> 100 µM,,> 100 µM,,> 100 µM,,> 100 µM,,> 100 µM,,> 100 µM,,> 100 µM,,> 100 µM,,> 100 µM,,> 100 µM
CCCCCCOc1ccc(/C=N/Nc2cc(C)nc3ccc(Br)cc23)cc1,1.53 µM,2.89 µM,1830 nM,3.43 µM,1660 nM,3.04 µM,1.75 µM,3.45 µM,2.07 µM,4.24 µM,1810 nM,3.24 µM,1290,3.26 µM,850 nM,2.11 µM,1940 nM,3.88 µM,1740 nM,3.24 µM
COc1ccc(-c2nn(C(=O)c3cc(OC)c(OC)c(OC)c3)c3cc(N)ccc23)cc1,< 0.0196 µM,5.05 µM,< 17.1 nM,> 100 µM,14.5 nM,8.39 µM,0.0207 µM,15.9 µM,< 0.0148 µM,4.43 µM,1760 nM,24.3 µM,< 12.1,< 0.022 µM,< 10 nM,1.45 µM,< 11.2 nM,1.74 µM,< 10 nM,15.3 µM
NC(CSC(c1ccccc1)(c1ccccc1)c1ccc(Br)cc1)C(=O)O (stereo not given),12.3 µM,> 100 µM,296 nM,> 76.6 µM,499 nM,> 100 µM,0.293 µM,40.8 µM,0.151 µM,22.4 µM,366 nM,31.7 µM,412,75.3 µM,46.9 nM,5.71 µM,175 nM,18.1 µM,170 nM,17.4 µM
N[C@@H](Cc1ccc(N(CCCl)CCCl)cc1)C(=O)O,12.9 µM and 29.6 µM,65.2 µM and 81.2 µM and 123 µM,30400 nM and 23000 nM,> 100 µM and 41.6 µM and 204 µM,2210 nM and 3860 nM,8.9 µM and 25.4 µM and 67.6 µM,15.2 µM and 20.3 µM and 48.6 µM,74.3 µM and 57.1 µM and 139 µM,7.08 µM and 5.64 µM,> 100 µM and 52.2 µM and 148 µM,68200 nM and 27300 nM,> 100 µM and 73.5 µM and 165 µM,6960,11.6 µM and 33 µM,25400 nM and 20900 nM,> 100 µM and 51.1 µM and 137 µM,3010 nM and 3780 nM,> 100 µM and 29.2 µM and 103 µM,8700 nM and 6390 nM,> 100 µM and 22.2 µM and 46.2 µM
COc1ccc(/C=C2\CCC(CN(C)C)C2=O)cc1 (stereo not given),,15.5 µM,,23.2 µM,,5.05 µM,,18.4 µM,,19.1 µM,,14.6 µM,,4.23 µM,,8.27 µM,,36.4 µM,,22.6 µM
O=C(c1ccccc1)C(c1ccccc1)C1(O)C(=O)Nc2ccc(Br)cc21 (stereo not given),,> 100 µM,,> 100 µM,,> 100 µM,,> 100 µM,,> 100 µM,,> 100 µM,,48.2 µM,,> 100 µM,,> 100 µM,,39.2 µM
